Patent publication US20020103163A1, “Acetylenic sulfonamide thiol TACE inhibitors” (American Cyanamid Company, priority 1999, published 2002)

Columns and labels:
[1] = target: TACE (Homo sapiens, UniProt P78536); assay: TACE inhibition (fluorescent peptidyl substrate); assay type: biochemical
Description: Using 96-well black microtiter plates, each well receives a solution composed of 10 μL TACE (final concentration 1 μg/mL), 70 μL Tris buffer, pH 7.4 containing 10% glycerol (final concentration 10 mM), and 10 μL of test compound solution in DMSO (final concentration 1 μM, DMSO concentration <1%) and incubated for 10 minutes at room temperature. The reaction is initiated by addition of a fluorescent peptidyl substrate (final concentration 100 μM) to each well and then shaking on a shaker for 5 sec.
The reaction is read (excitation 340 nm, emission 420 nm) for 10 min. and the increase in fluorescence over time is plotted as a linear line. The slope of the line is calculated and represents the reaction rate.
The linearity of the reaction rate is confirmed (r^2>0.85). The mean (x±sem) of the control rate is calculated and compared for statistical significance (p<0.05) with drug-treated rates using Dunnett's multiple comparison test. Dose-response relationships can be generate using multiple doses of drug and IC50 values with 95% CI are estimated using linear regression.

[2] = tested on: THP-1 cells; assay: THP-1 soluble protein assay (LPS-stimulated THP-1 cells, ELISA); assay type: cell-based; conditions: Homo sapiens
Description: Mitogenic stimulation of THP-1 cells cause differentiation into macrophage like cells with concomitant secretion of tumor necrosis factor (TNF-_) and TNF receptor (TNF-R p75/80 and TNF-R p55/60) and Interleukin-8 (IL-8), among other proteins. In addition, non-stimulated THP-1 cells shed both the p75/80 and the p55/60 receptors over time. The release of membrane bound TNF-_ and possibly TNF-R p75/80 and TNF-R p55/60, but not IL-8, is mediated by an enzyme called TNF-_ converting enzyme or TACE.
THP-1 cells (from ATCC) are a human monocytic cell line which were obtained from the peripheral blood of a person with acute monocytic leukemia. […]
To perform an assay, the THP-1 cells are co-incubated in a 24 well plate with […] of a 24 mg/ml stock of Lipopolysacharide (LPS) (Calbiochem Lot#B13189) at 37iC in 5% CO2 at a concentration of 1.091×10^6 cells/ml (1.1 ml/well) for a total of 24 hours. […] Compounds can be evaluated for their effect on basal (non-stimulated) shedding of the receptors by replacing the LPS with […] of THP-1 media. […]
In addition, at the 24 hours timepoint, and the cells for each treatment group are collected by resuspension in 500 μl/well of THP-1 media and transferred into a FACS tube. […] The samples are run on a Becton Dickinson FaxCaliber FLOW cytometry machine and the amount of dye taken up by each cell is measured in the high red wavelength (FL3). […]

[3] = target: MMP-9 (Homo sapiens, UniProt P14780); assay: MMP-9 inhibition (thiopeptide or fluorescent peptide substrate); assay type: biochemical
Sequence of MMP-9 (P14780 94-707): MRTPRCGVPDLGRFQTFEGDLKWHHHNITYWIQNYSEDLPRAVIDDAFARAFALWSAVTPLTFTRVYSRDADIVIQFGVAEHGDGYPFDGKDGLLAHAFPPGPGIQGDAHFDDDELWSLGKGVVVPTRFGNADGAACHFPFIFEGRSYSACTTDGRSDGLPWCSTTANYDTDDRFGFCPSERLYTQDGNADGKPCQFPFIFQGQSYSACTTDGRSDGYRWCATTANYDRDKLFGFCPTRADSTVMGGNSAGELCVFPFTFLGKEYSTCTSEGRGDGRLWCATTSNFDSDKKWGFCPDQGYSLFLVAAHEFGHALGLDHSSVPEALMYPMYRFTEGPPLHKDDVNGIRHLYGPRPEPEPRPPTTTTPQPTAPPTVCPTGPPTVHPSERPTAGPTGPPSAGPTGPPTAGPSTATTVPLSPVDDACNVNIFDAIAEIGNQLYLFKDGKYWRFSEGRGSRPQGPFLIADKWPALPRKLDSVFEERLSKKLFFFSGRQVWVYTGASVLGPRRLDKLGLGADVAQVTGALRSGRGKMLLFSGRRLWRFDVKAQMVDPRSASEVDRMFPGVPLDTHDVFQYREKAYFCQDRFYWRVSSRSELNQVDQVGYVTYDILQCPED
Description: (§1) These standard pharmacological test procedures are based on the cleavage of a thiopeptide substrates such as Ac-Pro-Leu-Gly(2-mercapto-4-methyl-pentanoyl)-Leu-Gly-OEt by the matrix metalloproteinases MMP-1, MMP-13 (collagenases) or MMP-9 (gelatinase), which results in the release of a substrate product that reacts calorimetrically with DTNB (5,5′-dithiobis(2-nitro-benzoic acid)). The enzyme activity is measured by the rate of the color increase. The thiopeptide substrate is made up fresh as a 20 mM stock in 100% DMSO and the DTNB is dissolved in 100% DMSO as a 100 mM stock and stored in the dark at room temperature. […] The buffer enzyme, vehicle or inhibitor, and DTNB/substrate are added in this order to a 96 well plate (total reaction volume of 200 μl) and the increase in color is monitored spectrophotometrically for 5 minutes at 405 nm on a plate reader and the increase in color over time is plotted as a linear line.
(§2) Alternatively, a fluorescent peptide substrate is used. […] Upon cleavage of the substrate by an MMP, the fluorescence that is generated is quantitated on the fluorescence plate reader. […] The reaction is read (excitation 340 nm, emission 444 nm) for 10 min. and the increase in fluorescence over time is plotted as a linear line.
(§3) For either the thiopeptide or fluorescent peptide test procedures, the slope of the line is calculated and represents the reaction rate. […]

[4] = target: MMP-13 (Homo sapiens, UniProt P45452); assay: MMP-13 inhibition (thiopeptide or fluorescent peptide substrate); assay type: biochemical
Description: as §1, §2, §3

[5] = target: T1, MMP-1 (Homo sapiens, UniProt P03956); assay: MMP-1 inhibition (thiopeptide or fluorescent peptide substrate); assay type: biochemical
T1 sequence (P03956 100-469): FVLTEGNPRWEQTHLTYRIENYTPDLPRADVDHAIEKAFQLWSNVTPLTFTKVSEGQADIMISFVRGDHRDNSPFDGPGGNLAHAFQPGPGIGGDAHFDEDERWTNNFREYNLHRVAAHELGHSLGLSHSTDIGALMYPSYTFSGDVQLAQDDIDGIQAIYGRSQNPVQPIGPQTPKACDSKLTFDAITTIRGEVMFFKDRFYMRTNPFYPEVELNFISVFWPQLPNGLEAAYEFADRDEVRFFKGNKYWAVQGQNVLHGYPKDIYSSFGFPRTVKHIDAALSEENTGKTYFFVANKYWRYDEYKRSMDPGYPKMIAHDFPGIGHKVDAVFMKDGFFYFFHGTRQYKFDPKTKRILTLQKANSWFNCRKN
Description: as §1, §2, §3

Sequence of TACE (P78536 215-824): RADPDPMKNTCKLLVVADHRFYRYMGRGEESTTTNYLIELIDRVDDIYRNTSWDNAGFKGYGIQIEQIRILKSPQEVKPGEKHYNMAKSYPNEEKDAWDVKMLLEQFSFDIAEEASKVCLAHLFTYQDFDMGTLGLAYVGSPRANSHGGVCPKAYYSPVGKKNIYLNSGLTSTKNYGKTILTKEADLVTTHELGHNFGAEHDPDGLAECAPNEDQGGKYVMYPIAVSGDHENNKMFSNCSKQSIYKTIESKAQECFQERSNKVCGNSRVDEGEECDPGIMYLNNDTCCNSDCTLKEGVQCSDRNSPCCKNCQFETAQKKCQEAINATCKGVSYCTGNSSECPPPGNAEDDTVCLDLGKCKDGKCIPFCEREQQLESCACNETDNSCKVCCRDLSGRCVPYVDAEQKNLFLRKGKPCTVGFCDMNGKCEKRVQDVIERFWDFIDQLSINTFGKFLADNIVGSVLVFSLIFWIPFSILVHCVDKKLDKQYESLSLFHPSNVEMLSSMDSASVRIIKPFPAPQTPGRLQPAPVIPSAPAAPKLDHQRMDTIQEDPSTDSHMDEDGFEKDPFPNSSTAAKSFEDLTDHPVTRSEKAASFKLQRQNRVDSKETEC

CC#CCOc1ccc(S(=O)(=O)N(C)[C@H](C)CS)cc1 [Example 8, 4-But-2-ynyloxy-N-((1R)-2-mercapto-1-methyl-ethyl)-N-methyl-benzenesulfonamide]
IC50 [1]: 273 nM
inhibition at 3 µM [2]: 3%
IC50 [3]: 2700 nM
IC50 [4]: 679 nM
IC50 [5]: 6.3 µM
